Molecular target: T1, Dimer of Gag-Pol polyprotein [489-587] (Human immunodeficiency virus 1, UniProt P12497)
T1 construct: 489-587
Assay: Protease Inhibition Assay
Description: For determination of IC50 values, HIV-1 protease was added to assay buffer containing inhibitor and the substrate (H-His-Lys-Ala-Arg-Val-Leu- (p-NO2) Phe-Glu-Ala-norleucine-Ser-NH2). The Leu- (p-NO2) Phe bond of the substrate was cleaved by the enzyme, and the substrate and products were separated by reversed-phase HPLC. Absorbance was measured at 220 nm, peak areas were determined, and percentage conversion to product was calculated.

| Compound | IC50 (pH 6.2, 37 °C) [nM] | IC50 [nM] | other results |
| --- | --- | --- | --- |
| Cc1cc(SC2C(=O)C[C@@](CCc3ccc(O)cc3)(C(C)C)OC2=O)c(C(C)(C)C)cc1CO (stereo partly drawn) [(6S)-3-{[2-tert-butyl-4-(hydroxymethyl)-5-methylphenyl]sulfanyl}-4-hydroxy-6-[2-(4-hydroxyphenyl)ethyl]-6-(propan-2-yl)-5,6-dihydro-2H-pyran-2-one] | – | – | Ki: 0.09 nM |
| Cc1cc(SC2C(=O)CC(CCc3ccc(O)cc3)(C3CC3)OC2=O)c(C(C)(C)C)cc1CO (stereo not given) [(3-(2-tert-Butyl-4-hydroxymethyl-5-methyl-phenylsulfanyl)-6-cyclopropyl-4-hydroxy-6-[2-(4-hydroxy-phenyl)-ethyl]-5,6-dihydro-pyran-2-one] | 1 | – | – |
| Cc1ccc(C(C)(C)C)c(SC2C(=O)CC(CCc3ccc(O)cc3)OC2=O)c1 (stereo not given) [3-[(2-tert-butyl-5-methylphenyl)sulfanyl]-4-hydroxy-6-[2-(4-hydroxyphenyl)ethyl]-5,6-dihydro-2H-pyran-2-one] | 338 | – | – |
| Cc1cc(SC2C(=O)CC(CCc3ccc(N)cc3)(CC(C)C)OC2=O)c(C(C)(C)C)cc1CO (stereo not given) [6-[2-(4-aminophenyl)ethyl]-3-{[2-tert-butyl-4-(hydroxymethyl)-5-methylphenyl]sulfanyl}-4-hydroxy-6-(2-methylpropyl)-5,6-dihydro-2H-pyran-2-one] | – | 2.9 | – |
| Cc1cc(SC2C(=O)CC(CCc3ccc(O)cc3)(C3CC3)OC2=O)c(C(C)(C)C)cc1OCCO (stereo not given) [(3-(2-tert-Butyl-4-(2-hydroxy-ethoxy)-5-methyl-phenylsulfanyl)-6-cyclopropyl-4-hydroxy-6-[2-(4-hydroxy-phenyl)-ethyl]-5,6-dihydro-pyran-2-one] | – | 3.8 | – |
